Test results from PubChem BioAssay (NCI).
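Tested at 5 concentrations; 48 h exposure; 96-well plates; endpoints linearly interpolated, else capped at highest concentration. GI50 marks 50% less growth. Definition used: TGI = concentration required for complete inhibition of growth.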

What was measured:
Test in all cases: inhibition of tumour cell growth, NCI panel, 48 h
SK-MEL-2 melanoma = test system: SK-MEL-2 melanoma
SF-268 CNS = test system: SF-268 CNS
NCI-H522 lung = test system: NCI-H522 lung
DU-145 prostate = test system: DU-145 prostate
MDA-MB-435 = test system: MDA-MB-435
MDA-MB-468 breast = test system: MDA-MB-468 breast
SK-MEL-28 melanoma = test system: SK-MEL-28 melanoma
SF-539 CNS = test system: SF-539 CNS
SNB-19 CNS = test system: SNB-19 CNS
HOP-62 NSCLC = test system: HOP-62 NSCLC
NCI-H226 lung = test system: NCI-H226 lung
HS 578T breast = test system: HS 578T breast
OVCAR-8 ovarian = test system: OVCAR-8 ovarian
IGROV1 ovarian = test system: IGROV1 ovarian
NCI-H23 lung = test system: NCI-H23 lung
CAKI-1 renal = test system: CAKI-1 renal
CCRF-CEM leukemia = test system: CCRF-CEM leukemia
A498 renal = test system: A498 renal
OVCAR-3 ovarian = test system: OVCAR-3 ovarian
BT-549 breast = test system: BT-549 breast
HT29 colon = test system: HT29 colon
EKVX NSCLC = test system: EKVX NSCLC
HCT-116 colon = test system: HCT-116 colon
SK-MEL-5 melanoma = test system: SK-MEL-5 melanoma
PC-3 prostate = test system: PC-3 prostate
MALME-3M melanoma = test system: MALME-3M melanoma
ACHN renal = test system: ACHN renal
A549 NSCLC = test system: A549 NSCLC
UACC-257 melanoma = test system: UACC-257 melanoma
U251 CNS = test system: U251 CNS
UACC-62 melanoma = test system: UACC-62 melanoma
OVCAR-5 ovarian = test system: OVCAR-5 ovarian
TK-10 renal = test system: TK-10 renal
HL-60(TB) leukemia = test system: HL-60(TB) leukemia
NCI/ADR-RES ovarian = test system: NCI/ADR-RES ovarian
K-562 leukemia = test system: K-562 leukemia
786-0 renal = test system: 786-0 renal
KM12 colon = test system: KM12 colon
NCI-H460 lung = test system: NCI-H460 lung
COLO 205 colon = test system: COLO 205 colon
RXF 393 renal = test system: RXF 393 renal
T-47D breast = test system: T-47D breast
MOLT-4 leukemia = test system: MOLT-4 leukemia
HCC-2998 colon = test system: HCC-2998 colon
LOX IMVI melanoma = test system: LOX IMVI melanoma
M14 melanoma = test system: M14 melanoma
OVCAR-4 ovarian = test system: OVCAR-4 ovarian
SK-OV-3 ovarian = test system: SK-OV-3 ovarian
MCF7 breast = test system: MCF7 breast
HCT-15 colon = test system: HCT-15 colon
HOP-92 NSCLC = test system: HOP-92 NSCLC
SNB-75 CNS = test system: SNB-75 CNS
SN12C renal = test system: SN12C renal
SW-620 colon = test system: SW-620 colon
RPMI-8226 leukemia = test system: RPMI-8226 leukemia
SF-295 CNS = test system: SF-295 CNS

## CO[C@H]1CSS[C@@H]1Cn1nc(-c2ccc(Oc3ccccc3)cc2)c2c(N)ncnc21
SK-MEL-2 melanoma
  GI50: 3.99 µM
  TGI: 15 µM
SF-268 CNS
  GI50: 4.22 µM
  TGI: > 100 µM
NCI-H522 lung
  GI50: 11 µM
  TGI: 27.2 µM
DU-145 prostate
  GI50: 13.7 µM
  TGI: > 100 µM
MDA-MB-435
  GI50: 2 µM
  TGI: 4.28 µM
MDA-MB-468 breast
  GI50: 3.06 µM
  TGI: 12.9 µM
SK-MEL-28 melanoma
  GI50: 2.75 µM
  TGI: 8.16 µM
SF-539 CNS
  GI50: 14.4 µM
  TGI: 49.2 µM
SNB-19 CNS
  GI50: 5.96 µM
  TGI: > 100 µM
HOP-62 NSCLC
  GI50: 3.25 µM
  TGI: 26.9 µM
NCI-H226 lung
  GI50: 9.1 µM
  TGI: 50.3 µM
HS 578T breast
  GI50: 14.2 µM
  TGI: 68.3 µM
OVCAR-8 ovarian
  GI50: 7.26 µM
  TGI: 53.7 µM
IGROV1 ovarian
  GI50: 8.69 µM
  TGI: 35.3 µM
NCI-H23 lung
  GI50: 8.51 µM
  TGI: 42.1 µM
CAKI-1 renal
  GI50: 8.17 µM
  TGI: 74.7 µM
CCRF-CEM leukemia
  GI50: 4.49 µM
  TGI: 22.3 µM
A498 renal
  GI50: 17.7 µM
  TGI: 63.9 µM
OVCAR-3 ovarian
  GI50: 7.82 µM
  TGI: 30.5 µM
BT-549 breast
  GI50: 18.4 µM
  TGI: 34.6 µM
HT29 colon
  GI50: 4.28 µM
  TGI: 18.1 µM
EKVX NSCLC
  GI50: 4.87 µM
  TGI: 30.1 µM
HCT-116 colon
  GI50: 4.19 µM
  TGI: 15.9 µM
SK-MEL-5 melanoma
  GI50: 3.21 µM
  TGI: 12.2 µM
PC-3 prostate
  GI50: 18 µM
  TGI: 75.1 µM
MALME-3M melanoma
  GI50: 9.3 µM
  TGI: 23.1 µM
ACHN renal
  GI50: 4.5 µM
  TGI: 37.3 µM
A549 NSCLC
  GI50: 4.37 µM
  TGI: > 100 µM
UACC-257 melanoma
  GI50: 2.98 µM
  TGI: 12 µM
U251 CNS
  GI50: 6.89 µM
  TGI: 55.2 µM
UACC-62 melanoma
  GI50: 2.82 µM
  TGI: 12.7 µM
OVCAR-5 ovarian
  GI50: 11.4 µM
  TGI: 41.3 µM
TK-10 renal
  GI50: 8.05 µM
  TGI: 25.7 µM
HL-60(TB) leukemia
  GI50: 4.16 µM
  TGI: 17.6 µM
NCI/ADR-RES ovarian
  GI50: 12.8 µM
  TGI: 64.6 µM
K-562 leukemia
  GI50: 2.83 µM
  TGI: 14.4 µM
786-0 renal
  GI50: 17.4 µM
  TGI: 58 µM
KM12 colon
  GI50: 5.51 µM
  TGI: 28 µM
NCI-H460 lung
  GI50: 2.69 µM
  TGI: 7.89 µM
COLO 205 colon
  GI50: 11.3 µM
  TGI: 24.7 µM
RXF 393 renal
  GI50: 6.13 µM
  TGI: 25.3 µM
T-47D breast
  GI50: 2.81 µM
  TGI: 20.8 µM
MOLT-4 leukemia
  GI50: 1.84 µM
  TGI: 4.93 µM
HCC-2998 colon
  GI50: 4.31 µM
  TGI: 18 µM
LOX IMVI melanoma
  GI50: 8.01 µM
  TGI: 20.7 µM
M14 melanoma
  GI50: 1.86 µM
  TGI: 3.78 µM
OVCAR-4 ovarian
  GI50: 18.4 µM
  TGI: > 100 µM
SK-OV-3 ovarian
  GI50: 2.38 µM
  TGI: 7.36 µM
MCF7 breast
  GI50: 3.84 µM
  TGI: 20.6 µM
HCT-15 colon
  GI50: 6.09 µM
  TGI: 32.6 µM
HOP-92 NSCLC
  GI50: 5.03 µM
  TGI: 29.3 µM
SNB-75 CNS
  GI50: 18.8 µM
  TGI: 75.3 µM
SN12C renal
  GI50: 6.52 µM
  TGI: 27.3 µM
SW-620 colon
  GI50: 14.6 µM
  TGI: > 100 µM
RPMI-8226 leukemia
  GI50: 13.5 µM
  TGI: 51.4 µM
SF-295 CNS
  GI50: 20.6 µM
  TGI: 63.4 µM
